Experimental data taken from US12240859B2, “Turbinmicin compounds, compositions and uses thereof” (Wisconsin Alumni Research Foundation, priority 2019, dated 2025).
Converted amounts (≈) assume the structure as drawn. Read-outs that look alike come from different tables or passages of the source.

How the values were obtained:
C. tropicalis = assay: In vitro MIC susceptibility testing, broth microdilution; type: cell-based; details: Candida tropicalis
Experimental: In vitro MIC susceptibility testing. […] The plates were incubated at 33° C. for 72 h. The MICs were determined as the lowest concentration that inhibited visible growth. The MICs were read at 24, 48, and 72 hours, respectively.

A. fumigatus = assay: Time kill experiments; type: cell-based, Aspergillus fumigatus; details: A. fumigatus as printed in b90 (FIG. 6C), 0-48 h
[1] = Solubility of turbinmicin in aqueous solvents; type: physicochemical
Text: In some embodiments, the pharmaceutical composition comprises turbinmicin and a pharmaceutically acceptable carrier comprising aqueous DMSO, e.g., DMSO in water, DMSO in 0.9% saline or DMSO in phosphate buffered saline (e.g., about 0.01 to about 0.1 molar Na/K phosphate buffer, about pH 7.4). In some embodiments the amount of DMSO in aqueous solution varies from at least about 1% by weight to about 80% by weight. […]. As turbinmicin had limited aqueous solubility, various solubilizing conditions (Table 4) were tested.

C. albicans [2] = assay: In vitro MIC susceptibility testing, broth microdilution; type: cell-based, Candida albicans; details: Candida albicans
Experimental: (§1) In vitro MIC susceptibility testing. […]. Amphotericin B was used as a positive control and the MICs range were 0.25-1.5 μg/mL. Six untreated media controls were included on each plate. The plates were incubated at 33° C. for 72 h. The MICs were determined as the lowest concentration that inhibited visible growth. The MICs were read at 24, 48, and 72 hours, respectively. […]

C. auris [3] = assay: as above; type: cell-based, Candida auris; details: Candidozyma auris
Experimental: as §1

[4] = test system: Cynninghamella bertholletiae; assay: In vitro MIC susceptibility testing; type: cell-based
Experimental: as §1

Lichteimia corymbiferea = assay: In vitro MIC susceptibility testing; type: cell-based
Experimental: as §1

Scedosporium spp. = assay: In vitro MIC susceptibility testing; type: cell-based
Experimental: as §1

Mucor circinelloides = assay: In vitro MIC susceptibility testing; type: cell-based
Experimental: as §1

Apophysomyces elegans = assay: In vitro MIC susceptibility testing; type: cell-based
Experimental: as §1

Rhizopus delemar = assay: In vitro MIC susceptibility testing; type: cell-based
Experimental: as §1

Aspergillus fumigatus = assay: In vitro MIC susceptibility testing; type: cell-based
Experimental: as §1

Rhizopus oryzae = assay: In vitro MIC susceptibility testing; type: cell-based; details: Rhizopus arrhizus
Experimental: as §1

C. albicans [5] = assay: Time kill experiments; type: cell-based, Candida albicans; details: C. albicans (K-1, FIG. 6B), 1x to 16x MIC, 0-48 h
Experimental: (§2) FIGS. 6A-C show time-kill curves for turbinmicin against (6A) C. auris B11211, (6B) C. albicans K-1, and (6C) C. glabrata 4720.
(§3) Time Kill Experiments. Fresh Candida colonies from an overnight growth were added to normal saline and the turbidity was adjusted to a 0.6 transmittance at 530 nm to provide a standard suspension (1*10^6 CFU/mL). This suspension was diluted with RPMI 1640 medium buffered with MOPS and a standard compound stock solution to achieve a starting inoculum of approximately 10^5 CFU/ml. Each 20 mL culture (RPMI 1640 medium buffered with MOPS) was incubated at 35° C. with constant shaking, and 0.1 mL samples were withdrawn for the determination of fungal counts at 0, 2, 4, 6, 8, 24 and 48 h. Colony counts were determined by viable counts on sabouraud agar plate (SDA) after incubation for 48 h. Growth control for each organism were prepared without antifungal and run in parallel.

sheep red blood cells = assay: Hemolysis assay; type: cell-based; details: 1 h, concentrations exceeding the MIC by 1000-fold
Experimental: Hemolysis Assay. Assays were performed in 384-well plates using sheep blood (0.1% triton as the positive control). Sheep's blood (Ward's Science) was washed with PBS and diluted to a concentration of 6×10^7 red blood cells per ml. A volume of 50 μL of blood was incubated with compound for 1 h, and subsequently pelleted at 4000 rpm for 10 min. Thirty microliters of supernatant were transferred to a clear plate and OD570 was read. An increase in OD indicated the red blood cell lysis and hemolytic activity.

C. auris [6] = assay: Time kill experiments; type: cell-based, Candida auris; details: C. auris (B11211, FIG. 6A), 1x to 16x MIC, 0-48 h
Experimental: as §2, §3

C. glabrata = assay: In vitro MIC susceptibility testing, broth microdilution; type: cell-based, Candida glabrata
Experimental: as §1

A. fumigatus F11628 = assay: Neutropenic murine nasal aspiration pneumonia model of invasive pulmonary aspergillosis; type: in vivo, Aspergillus fumigatus

**Q.** With `C/C=C/C=C/C=C/C(=O)OC1C=CCC2C(=O)c3c(O)c4c5c(c3OC12)OCOC5CC1C(=O)c2cc(C)[nH]c(=O)c2C(=O)C41O` (stereo not shown) [Turbinmicin, turbinmicin] as the compound, how does the MIC (C. tropicalis; ATCC750, strain ATCC 750) read?
**A.** 0.25 µg/mL (≈ 0.398 µM)

**Q.** What about the MIC (C. tropicalis; strain 001) of the same compound?
**A.** 0.5 µg/mL (≈ 0.797 µM)

**Q.** And the MIC (C. tropicalis; strain 98-234)?
**A.** 0.5 µg/mL (≈ 0.797 µM)

**Q.** And the MIC (C. tropicalis; strain 1751)?
**A.** 0.25 µg/mL (≈ 0.398 µM)

**Q.** What about the MIC (C. tropicalis; strain 2597) of the same compound?
**A.** 0.25 µg/mL (≈ 0.398 µM)

**Q.** What about the time-kill activity (A. fumigatus) of the same compound?
**A.** Fungacidal activity was observed

**Q.** And the “Highest Turbmicin conc. Achieved” value ([1]; No. 2, DMSO (1% in PBS))?
**A.** ≤0.5 mg/mL

**Q.** What about the “Highest Turbmicin conc. Achieved” value ([1]; No. 4, DMSO (10% in PBS)) of the same compound?
**A.** 2 mg/mL

**Q.** And the “Highest Turbmicin conc. Achieved” value ([1]; No. 5, PEG 400 (50% in PBS))?
**A.** ≤0.5 mg/mL

**Q.** What about the “Highest Turbmicin conc. Achieved” value ([1]; No. 6, Kolliphor EL (10% in PBS)) of the same compound?
**A.** ≤0.5 mg/mL

**Q.** What about the “Highest Turbmicin conc. Achieved” value ([1]; No. 7, Tween 80 (2% in PBS)) of the same compound?
**A.** ≤0.5 mg/mL

**Q.** And the solubility ([1]; aqueous with cosolvent or surfactant or cyclodextrin, mixtures of DMSO and water, read-out: concentration solubilized)?
**A.** > 500 µg/mL

**Q.** And the solubility ([1]; pH 7.4, aqueous buffer, No. 1, PBS, read-out: Highest Turbmicin conc. Achieved)?
**A.** ≤ 500 µg/mL

**Q.** And the solubility ([1]; pH 7.4, aqueous with cosolvent or surfactant or cyclodextrin, No. 3, DMSO (5% in PBS), read-out: Highest Turbmicin conc. Achieved)?
**A.** ≤ 1000 µg/mL

**Q.** And the solubility ([1]; water, read-out: water solubility)?
**A.** < 500 µg/mL

**Q.** What about the MIC (C. albicans [2]; strain 98-17) of the same compound?
**A.** 0.25 µg/mL (≈ 0.398 µM)

**Q.** And the MIC (C. albicans [2]; strain 98-210)?
**A.** 0.25 µg/mL (≈ 0.398 µM)

**Q.** What about the MIC (C. albicans [2]; strain 580) of the same compound?
**A.** 0.5 µg/mL (≈ 0.797 µM)

**Q.** What about the MIC (C. albicans [2]; strain K1 (K-1)) of the same compound?
**A.** 0.25 µg/mL (≈ 0.398 µM)

**Q.** And the MIC (C. albicans [2]; strain SN250)?
**A.** 0.25 µg/mL (≈ 0.398 µM)

**Q.** And the MIC (C. auris [3]; strain B11104)?
**A.** 0.5 µg/mL (≈ 0.797 µM)

**Q.** What about the MIC (C. auris [3]; strain B11203) of the same compound?
**A.** 0.5 µg/mL (≈ 0.797 µM)

**Q.** And the MIC (C. auris [3]; strain B11211, resistant to amphotericin B, fluconazole, micafungin, read-out: MIC)?
**A.** 0.25 µg/mL (≈ 0.398 µM)

**Q.** What about the MIC (C. auris [3]; strain B11219) of the same compound?
**A.** 0.25 µg/mL (≈ 0.398 µM)

**Q.** And the MIC (C. auris [3]; strain B11220)?
**A.** 0.125 µg/mL (≈ 0.199 µM)

**Q.** And the MIC (C. auris [3]; strain B11221)?
**A.** 0.5 µg/mL (≈ 0.797 µM)

**Q.** What about the MIC (C. auris [3]; strain B11785) of the same compound?
**A.** 0.25 µg/mL (≈ 0.398 µM)

**Q.** And the MIC (C. auris [3]; strain B11799)?
**A.** 0.5 µg/mL (≈ 0.797 µM)

**Q.** And the MIC (C. auris [3]; strain B11801)?
**A.** 0.5 µg/mL (≈ 0.797 µM)

**Q.** And the MIC (C. auris [3]; strain B11804)?
**A.** 0.5 µg/mL (≈ 0.797 µM)

**Q.** What about the MIC [4] of the same compound?
**A.** > 8 µg/mL

**Q.** And the MIC (Lichteimia corymbiferea)?
**A.** 4 µg/mL (≈ 6.37 µM)

**Q.** And the MIC (Scedosporium spp.)?
**A.** 0.5 µg/mL (≈ 0.797 µM)

**Q.** What about the MIC (Mucor circinelloides) of the same compound?
**A.** 4 µg/mL (≈ 6.37 µM)

**Q.** And the MIC (Apophysomyces elegans)?
**A.** 4 µg/mL (≈ 6.37 µM)

**Q.** And the MIC (Rhizopus delemar)?
**A.** 4 µg/mL (≈ 6.37 µM)

**Q.** What about the MIC (Aspergillus fumigatus; strain 293, read-out: MIC) of the same compound?
**A.** 0.125 µg/mL (≈ 0.199 µM)

**Q.** And the MIC (Aspergillus fumigatus; strain F11628 (11628), Cyp51 G138C, triazole resistant)?
**A.** 0.03 µg/mL (≈ 0.0478 µM)

**Q.** And the MIC (Aspergillus fumigatus; strain F14403, Cyp51 G54R)?
**A.** 0.25 µg/mL (≈ 0.398 µM)

**Q.** What about the MIC (Aspergillus fumigatus; strain F14532, Cyp51 M220T) of the same compound?
**A.** 0.25 µg/mL (≈ 0.398 µM)

**Q.** And the MIC (Aspergillus fumigatus; strain F16216, Cyp51 L98H + TR)?
**A.** 0.25 µg/mL

**Q.** And the MIC (Rhizopus oryzae)?
**A.** > 8 µg/mL

**Q.** And the time-kill activity (C. albicans [5])?
**A.** Fungacidal activity was observed

**Q.** And the “red blood cell toxicity (hemolysis)” value (sheep red blood cells)?
**A.** did not exhibit red blood cell toxicity

**Q.** And the time-kill activity (C. auris [6])?
**A.** Fungacidal activity was observed

**Q.** And the MIC (C. glabrata; Nakaseomyces glabratus)?
**A.** 0.5 µg/mL (≈ 0.797 µM)

**Q.** And the MIC (C. glabrata; strain 513)?
**A.** 0.5 µg/mL (≈ 0.797 µM)

**Q.** What about the MIC (C. glabrata; strain 729, Fks2_HS1_S663P) of the same compound?
**A.** 0.5 µg/mL (≈ 0.797 µM)

**Q.** What about the MIC (C. glabrata; strain 5592) of the same compound?
**A.** 0.5 µg/mL (≈ 0.797 µM)

**Q.** What about the MIC (C. glabrata; strain 14378, Fks1_HS1_S629P) of the same compound?
**A.** 0.5 µg/mL (≈ 0.797 µM)

**Q.** And the survival (A. fumigatus F11628; mice, 0.25, 0.5 and 1 mg/kg IP every 6 hrs for 4 days, all three dosages)?
**A.** 100%

**Q.** And the “CE/mL reduction of lung homogenate measured by qPCR” value (A. fumigatus F11628; mice, dose of 1 mg/kg IP every 6 hrs for 4 days)?
**A.** 1 log 10 CE/mL
